“Also recorded” adds a separate entry of the source. Read-outs that look alike come from different tables or passages of the source. Residues, ends and D or L forms follow the SMILES beside them. No end group written: not given here. *: point of attachment. Cbz = O=C(OCc1ccccc1)*
How the values were obtained:
Type in all cases: biochemical
[1] = target: T1, purified transglutaminase originating from Crassostrea gigas (Magallana gigas, UniProt A0A8W8K4D7); conditions: final concentration 1 mM; for Residual Activity: treated at 25° C. for 10 minutes, reaction 37° C. 30 minutes
T1 construct: Met-less mature form starts […]; recombinant enzyme from E. coli or yeast reported equivalent
T1 sequence (A0A8W8K4D7 entry or part of it with the stated changes): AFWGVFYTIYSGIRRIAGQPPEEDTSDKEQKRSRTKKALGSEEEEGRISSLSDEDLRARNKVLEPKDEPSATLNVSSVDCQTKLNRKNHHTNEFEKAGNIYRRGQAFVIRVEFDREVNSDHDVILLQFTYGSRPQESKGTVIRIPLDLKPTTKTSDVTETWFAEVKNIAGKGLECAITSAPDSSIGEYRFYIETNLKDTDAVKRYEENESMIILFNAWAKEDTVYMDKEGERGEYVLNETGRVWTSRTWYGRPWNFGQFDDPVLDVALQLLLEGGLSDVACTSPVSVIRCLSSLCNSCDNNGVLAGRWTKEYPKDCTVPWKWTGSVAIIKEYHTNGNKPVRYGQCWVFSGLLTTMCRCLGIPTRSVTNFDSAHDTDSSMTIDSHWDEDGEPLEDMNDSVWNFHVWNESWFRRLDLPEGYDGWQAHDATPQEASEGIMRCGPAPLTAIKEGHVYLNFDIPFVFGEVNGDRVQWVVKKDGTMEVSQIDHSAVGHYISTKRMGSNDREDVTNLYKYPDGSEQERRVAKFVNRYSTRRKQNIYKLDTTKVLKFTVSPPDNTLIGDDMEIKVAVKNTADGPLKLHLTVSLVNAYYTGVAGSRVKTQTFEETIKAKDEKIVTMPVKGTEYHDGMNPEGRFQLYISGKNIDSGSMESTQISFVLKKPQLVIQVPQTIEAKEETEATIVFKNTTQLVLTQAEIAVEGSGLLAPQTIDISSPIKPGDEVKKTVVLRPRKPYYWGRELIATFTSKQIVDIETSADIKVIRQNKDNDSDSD
Procedure: The activity of the transglutaminase is determined by reacting the enzyme with dimethylated casein and monodansylcadaverine as substrates and measuring an increase in the fluorescent intensity of casein due to the incorporation of monodansylcadaverine into the dimethylated casein. The composition of the reaction solution is as follows:
To 2.4 ml of the foregoing reaction solution, there is added 20 to 50 μl of the transglutaminase solution followed by carrying out the reaction at 37° C. for 30 min, terminating the reaction by addition of 100 μl of a 500 mM EDTA solution and then determining the fluorescent intensity of the reaction solution (using a device: RF-1500 available from Shimadzu Corporation; excitation wavelength: 350 nm; wavelength of emitted fluorescent rays: 480 nm). In respect of the unit of the activity, that required for increasing the fluorescent intensity by 1.0 within one minute is herein defined to be one unit.
The purified transglutaminase was treated at a temperature of 25° C. for 10 minutes while adding each of a variety of enzyme activity-inhibitory agents and each metal ion in such an amount that the final concentration thereof was equal to 1 mM and then the reaction was carried out at a temperature of 37° C. for 30 minutes using dimethylated casein and monodansylcadaverine as substrates.

[2] = target: T1, purified transglutaminase originating from Crassostrea gigas; conditions: synthetic substrate and hydroxylamine
Source text: The inventors have investigated the enzyme activity of the purified transglutaminase using a variety of synthetic substrates and hydroxylamine.

[3] = system: dimethylated casein and monodansylcadaverine; test: Effect of NaCl and Ca2+ on enzyme activity; conditions: increasing NaCl concentration

Molecule | Residual Activity [1] [%] | enzyme activity with synthetic substrate (in words) [2] | enzyme activity-inhibitory effect (in words) [1] | also measured
[Zn+2] [Zn^2+] | 65.0 | – | – | –
CBZ-Gln-Gln-Gly: synthetic substrate (Cbz-Gln-Gln-Gly) | – | catalyzed the reaction | – | –
[Cu+2] [Cu^2+] | 8.8 | – | strongly inhibited the enzyme activity; also recorded: extremely high; also recorded: inhibited | –
CCOC(=O)CNC(=O)[C@H](CCC(N)=O)NC(=O)OCc1ccccc1 [CBZ-Gln-Gly-OEt] (Cbz-Gln-Gly-OEt) | – | catalyzed the reaction | – | –
O=C(O)c1cc[c]([Hg][Cl])cc1 [p-Chloromercuribenzoic Acid] | 10.5 | – | high enzyme activity-inhibitory effect; also recorded: inhibited | –
[Ni+2] [Ni^2+] | 67.9 | – | – | –
[Co+2] [Co^2+] | 54.3 | – | strongly inhibited the enzyme activity | –
NC(=O)CC[C@H](NC(=O)OCc1ccccc1)C(=O)NCC(=O)O [CBZ-Gln-Gly, benzyloxycarbonyl glutaminyl glycine] (Cbz-Gln-Gly-OH) | – | catalyzed the reaction | – | enzyme activity with synthetic substrate (in words) ([2]; listed as benzyloxycarbonyl glutaminyl glycine): showed the enzyme activity
O=S(=O)(F)Cc1ccccc1 [Phenylmethylsulfone Fluoride] | 96.4 | – | almost no enzyme activity-inhibitory effect | –
[Pb+2] [Pb^2+] | 55.5 | – | strongly inhibited the enzyme activity | –
[Ba+2] [Ba^2+] | 102 | – | almost no enzyme activity-inhibitory effect | –
[Mg+2] [Mg^2+] | 98.2 | – | almost no enzyme activity-inhibitory effect | –
CCN1C(=O)C=CC1=O [N-Ethylmaleimide] | – | – | high enzyme activity-inhibitory effect; also recorded: inhibited | –
CBZ-Gly- Gly-Gln-Gly: synthetic substrate, SEQ ID NO: 143 (Cbz-GGQG) | – | catalyzed the reaction | – | –
NC(=O)CC[C@H](NC(=O)OCc1ccccc1)C(=O)O [CBZ-Gln, benzyloxycarbonyl glutamine] | – | did not catalyze the reaction | – | enzyme activity with synthetic substrate (in words) ([2]; listed as benzyloxycarbonyl glutamine): did not show any enzyme activity
O=C(O)CI [Monoiodoacetic Acid] | – | – | high enzyme activity-inhibitory effect | enzyme activity-inhibitory effect (in words) ([1]; listed as momoiodo acetic acid): inhibited
glycyl glutamyl glycine [Gly-Gln-Gly] | – | did not catalyze the reaction | – | enzyme activity with synthetic substrate (in words) ([2]; listed as glycyl glutamyl glycine): did not show any enzyme activity
NC(=O)C[C@H](NC(=O)OCc1ccccc1)C(=O)NCC(=O)O [CBZ-Asn-Gly, benzyloxycarbonyl asparaginyl glycine] (Cbz-Asn-Gly-OH) | – | did not catalyze the reaction | – | enzyme activity with synthetic substrate (in words) ([2]; listed as benzyloxycarbonyl asparaginyl glycine): did not show any enzyme activity
[Mn+2] [Mn^2+] | 84.7 | – | – | –
[Sr+2] [Sr^2+] | 93.8 | – | almost no enzyme activity-inhibitory effect | –
transglutaminase originating from a microorganism: TGase originating from a microorganism; probably the Streptoverticillium calcium-independent BTG (protein, UniProt P81453 77-407, looked up) Protein-glutamine …: DSDDRVTPPAEPLDRMPDPYRPSYGRAETVVNNYIRKWQQVYSHRDGRKQQMTEEQREWLSYGCVGVTWVNSGQYPTNRLAFASFDEDRFKNELKNGRPRSGETRAEFEGRVAKESFDEEKGFQRAREVASVMNRALENAHDESAYLDNLKKELANGNDALRNEDARSPFYSALRNTPSFKERNGGNHDPSRMKAVIYSKHFWSGQDRSSSADKRKYGDPDAFRPAPGTGLVDMSRDRNIPRSPTSPGEGFVNFDYGWFGAQTEADADKTVWTHGNHYHAPNGSLGAMHVYESKFRNWSEGYSDFDRGAYVITFIPKSWNTAPDKVKQGWP | – | – | – | effect of NaCl concentration on enzyme activity (in words) [3]: did not show any increase

Source: patent US5736356A, “Transglutaminase originating from Crassostrea gigas” (Ajinomoto Co., Inc., priority 1994, dated 1998)
